Reference: article PMC4770093, “The role of kinetic context in apparent biased agonism at GPCRs” (Nature Communications, 2016)
Several values for one entry are separate records, joined by “and”; a condition that tells them apart may be missing. Identical values can stand only once. Like-named read-outs stand apart in the source and are kept apart here.

Assays:
[1] = molecular target: SNAP-tagged human dopamine D2L (Homo sapiens, UniProt P14416); experiment: Tag-lite PPHT-red competition kinetic binding (HTRF); settings: PPHT-red tracer, Tag-lite
SNAP-tagged human dopamine D2L, sequence (P14416 whole entry): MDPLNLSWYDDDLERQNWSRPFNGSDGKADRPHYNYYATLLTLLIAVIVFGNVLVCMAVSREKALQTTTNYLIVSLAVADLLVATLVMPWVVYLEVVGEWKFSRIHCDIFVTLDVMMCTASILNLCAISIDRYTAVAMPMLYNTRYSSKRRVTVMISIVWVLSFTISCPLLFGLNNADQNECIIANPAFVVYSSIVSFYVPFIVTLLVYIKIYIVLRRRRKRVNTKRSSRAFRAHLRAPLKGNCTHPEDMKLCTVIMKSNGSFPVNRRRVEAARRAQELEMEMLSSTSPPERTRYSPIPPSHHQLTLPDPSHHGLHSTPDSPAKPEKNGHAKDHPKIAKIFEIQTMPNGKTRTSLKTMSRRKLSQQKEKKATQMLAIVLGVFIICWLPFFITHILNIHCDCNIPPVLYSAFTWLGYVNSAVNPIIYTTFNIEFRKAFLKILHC
Method: To terbium label the SNAP-CHO-D2L cells, cell culture medium was removed from the T175 cm^2 flasks containing confluent adherent SNAP-CHO-D2L cells. Twelve millilitres of Tag-lite labelling medium containing 100 nM of SNAP-Lumi4-Tb was added to the flask and incubated for 1 h at 37 °C under 5% CO2. Cells were then washed 2 × in 15 ml PBS (GIBCO, Invitrogen, Paisley, UK) to remove the excess of SNAP-Lumi4-Tb and detached using 5 ml of enzyme-free Hank's-based cell dissociation buffer (GIBCO, Invitrogen, Paisley, UK) and collected in a vial containing 5 ml of DMEM/Nutrient F-12 Ham, 2 mM glutamine supplemented 10% FCS. Cells were pelleted by centrifugation (5 min at 1,500 r.p.m.) and the pellets were frozen to −80 °C before preparation of membranes.
All subsequent steps described were conducted at 4 °C, to avoid receptor degradation. Twenty millilitres of wash buffer (10 mM HEPES and 10 mM EDTA pH 7.4) was added to the pellet of terbium-labelled cells (equivalent to 1 × t175 cm^2). […] The supernatant was discarded and the pellet was homogenized and centrifuged as described above in wash buffer. The final pellet was suspended in ice-cold 10 mM HEPES and 0.1 mM EDTA pH 7.4, at a concentration of 5–10 mg m^−1. Protein concentration was determined by the bicinchoninic acid assay using BSA as a standard and aliquots maintained at −80 °C until required. Before their use, the frozen membranes were thawed and the membranes suspended in the assay buffer at a membrane concentration of 0.1 mg m^−1.
GppNHp was included to remove the G protein-coupled population of receptors that can result in two binding sites in membrane preparations, because the Motulsky–Mahan model is only appropriate for ligands competing at a single site. […] Both fluorescent ligands and unlabelled compounds were diluted in the binding assay buffer.
Kinetics acquisitions at intervals of 20 s were recorded using the standard settings of the reader for HTRF measurements. […] Specific binding was determined by subtracting the nonspecific HTRF ratio from the total HTRF ratio.
To accurately determine association rate (kon) and dissociation rate (koff) values, the observed rate of association (kob) was calculated using at least four different concentrations of PPHT-red. The appropriate concentration of PPHT-red was incubated in a 384-well Optiplate with human SNAP-D2LR-CHO cell membranes (2 μg per well) in assay binding buffer at 37 °C (final assay volume, 40 μl). The degree of PPHT-red bound to the receptor was assessed at multiple time points by HTRF detection, to allow construction of association kinetic curves. The resulting data were globally fitted to the association kinetic model (equation (8)) to derive a single best-fit estimate for kon and koff as described under ‘Data analysis'.
On the same 384-well Optiplate plate, the kinetic parameters of unlabelled ligand were assessed using a competition kinetic binding assay. This approach involves the simultaneous addition of both fluorescent ligand and competitor to receptor preparation so that at t=0 all receptors are unoccupied. […] The degree of PPHT-red bound to the receptor was assessed at multiple time points by HTRF detection. Nonspecific binding was determined as the amount of HTRF signal detected in the presence of spiperone (1 μM) and was subtracted from each time point. Each time point was conducted on the same 384-well plate incubated at 37 °C with shaking (100 r.p.m.) after every cycle.
Data were globally fitted using equation (7), to simultaneously calculate kon and koff.

D2R = experiment: Simulation of receptor occupancy over time from kon and koff; settings: simulation with a KD concentration of each agonist
Source text: We extended these studies with a Tag-lite receptor binding assay using a D2R construct with an amino-terminal SNAP tag and the fluorescently labelled agonist (±)-4′-amino-2-(N-phenethyl-N-propyl)-amino-5-hydroxytetralin (PPHT). […] The association rate of a ligand is often thought to be diffusion limited. […] Using these kinetic parameters, we performed a simulation to estimate the receptor occupancy of a KD concentration of each agonist over time (Fig. 4e).
Kinetic binding parameters of kon (a), koff (b) and t1/2 (c) were determined in a competition kinetic binding assay using a Tag-lite binding assay and the fluorescently labelled agonist PPHT as the tracer ligand (Supplementary Table 6). […] All values are expressed as mean±s.e.m. from three experiments. (e) The values of kon and koff obtained in the competition kinetic assay were used to simulate receptor occupancy over time using equation (9) and the concentration of ligand equivalent to its KD (see Supplementary Table 6).
where Ymax reflects maximum binding of a concentration of ligand and kob is determined by equation (8).

D2LR [2] = molecular target: T1, D2LR (Homo sapiens, UniProt P14416); experiment: Gαi1 G protein activation (BRET); type: cell-based; design: expressed in transfected cells
T1 sequence (P14416 whole entry): as above

D2LR [3] = molecular target: T1, D2LR; experiment: Inhibition of forskolin-induced cAMP production (BRET CAMYEL biosensor); settings: for EC50: pEC50 cAMP; for Emax: relative to the maximal response of ropinirole; for Inhibition of cAMP production measured using a CAMYEL BRET biosensor, Net BRET: single experiments n = 1, 2, 3
Method: Flp-In-CHO cells stably expressing the D2LR were seeded at a density of 2,000,000 cells per 10-cm dish and were transfected the following day using polyethylenimine as the transfection reagent. The cells were transfected with 3 μg CAMYEL, to allow the detection of cAMP levels within the cells. Twenty-four hours after transfection, the cells were plated into 96-well CulturPlates (PerkinElmer) and grown overnight. The cells were equilibrated in Hank's balanced salt solution at 37 °C (or 25 °C when indicated) before starting the experiment. The cells were co-stimulated with the agonists and 10 μM forskolin for the indicated timeframes when the BRET readings were captured. Coelenterazine (Promega) was added at a final concentration of 5 μM at least 3 min before measurement. […] Net BRET was determined by subtraction of the vehicle control co-added with 10 μM forskolin.

Structure (SMILES): CCCN(CCC)CCc1cccc2c1CC(=O)N2 [Ropinirole, ropinirole]
- koff ([1]; 100 μM GppNHp, 37 °C, read-out: koff (converted)): 0.0433 s⁻¹
- Kd ([1]; read-out: pKd (affinity determined from kinetic parameters) (converted)): 1860 nM
- time to maximal receptor occupancy (D2R): ≤ 1 min
- Log(τ/KA) Gαi1 activation (D2LR [2]): 6.75 ± 0.09
- ΔLog(τ/KA) Gαi1 activation (D2LR [2]): -0.43 ± 0.13
- Log(τ/KA) cAMP (D2LR [3]): 7.67 ± 0.04
- ΔLog(τ/KA) cAMP (D2LR [3]): -0.39 ± 0.06
- EC50 (D2LR [3]; 2 min): 9.55 nM
- EC50 (D2LR [3]; 5 min): 22.4 nM
- EC50 (D2LR [3]; 10 min): 41.7 nM
- EC50 (D2LR [3]; 15 min): 42.7 nM
- EC50 (D2LR [3]; 30 min): 34.7 nM
- EC50 (D2LR [3]; 45 min): 97.7 nM
- EC50 (D2LR [3]; 60 min): 186 nM
- EC50 (D2LR [3]; 75 min): 107 nM
- EC50 (D2LR [3]; 90 min): 174 nM
- Emax (D2LR [3]; read-out: Emax cAMP, 2 min): 100%
- Emax (D2LR [3]; read-out: Emax cAMP, 5 min): 100%
- Emax (D2LR [3]; read-out: Emax cAMP, 10 min): 100%
- Emax (D2LR [3]; read-out: Emax cAMP, 15 min): 100%
- Emax (D2LR [3]; read-out: Emax cAMP, 30 min): 100%
- Emax (D2LR [3]; read-out: Emax cAMP, 45 min): 100%
- Emax (D2LR [3]; read-out: Emax cAMP, 60 min): 100%
- Emax (D2LR [3]; read-out: Emax cAMP, 75 min): 100%
- Emax (D2LR [3]; read-out: Emax cAMP, 90 min): 100%
- Inhibition of cAMP production measured using a CAMYEL BRET biosensor, Net BRET (D2LR [3]; time 2.21667 mins): 0.139 and 0.1472 and 0.1432
- Inhibition of cAMP production measured using a CAMYEL BRET biosensor, Net BRET (D2LR [3]; time 2.58333 mins): 0.1633 and 0.1578 and 0.1547
- Inhibition of cAMP production measured using a CAMYEL BRET biosensor, Net BRET (D2LR [3]; time 2.95 mins): 0.1708 and 0.1681 and 0.157
- Inhibition of cAMP production measured using a CAMYEL BRET biosensor, Net BRET (D2LR [3]; time 3.31667 mins): 0.1659 and 0.1812 and 0.1714
- Inhibition of cAMP production measured using a CAMYEL BRET biosensor, Net BRET (D2LR [3]; time 3.68333 mins): 0.1811 and 0.1789 and 0.1805
- Inhibition of cAMP production measured using a CAMYEL BRET biosensor, Net BRET (D2LR [3]; time 4.05 mins): 0.191 and 0.1937 and 0.1853
- Inhibition of cAMP production measured using a CAMYEL BRET biosensor, Net BRET (D2LR [3]; time 4.41667 mins): 0.1979 and 0.1996 and 0.185
- Inhibition of cAMP production measured using a CAMYEL BRET biosensor, Net BRET (D2LR [3]; time 4.78333 mins): 0.2031 and 0.2011 and 0.1899
- Inhibition of cAMP production measured using a CAMYEL BRET biosensor, Net BRET (D2LR [3]; time 5.15 mins): 0.2133 and 0.1934 and 0.1923
- Inhibition of cAMP production measured using a CAMYEL BRET biosensor, Net BRET (D2LR [3]; time 5.51667 mins): 0.202 and 0.1988 and 0.1873
- Inhibition of cAMP production measured using a CAMYEL BRET biosensor, Net BRET (D2LR [3]; time 5.88333 mins): 0.214 and 0.1997 and 0.2002
- Inhibition of cAMP production measured using a CAMYEL BRET biosensor, Net BRET (D2LR [3]; time 6.25 mins): 0.2138 and 0.204 and 0.1926
- Inhibition of cAMP production measured using a CAMYEL BRET biosensor, Net BRET (D2LR [3]; time 6.61667 mins): 0.2113 and 0.1972 and 0.1923
- Inhibition of cAMP production measured using a CAMYEL BRET biosensor, Net BRET (D2LR [3]; time 6.98333 mins): 0.2032 and 0.2012 and 0.1937
- Inhibition of cAMP production measured using a CAMYEL BRET biosensor, Net BRET (D2LR [3]; time 7.35 mins): 0.2141 and 0.1963 and 0.1945
- Inhibition of cAMP production measured using a CAMYEL BRET biosensor, Net BRET (D2LR [3]; time 7.71667 mins): 0.2104 and 0.2011 and 0.1956
- Inhibition of cAMP production measured using a CAMYEL BRET biosensor, Net BRET (D2LR [3]; time 8.08333 mins): 0.2099 and 0.2149 and 0.1931
- Inhibition of cAMP production measured using a CAMYEL BRET biosensor, Net BRET (D2LR [3]; time 8.45 mins): 0.2126 and 0.2072 and 0.1885
- Inhibition of cAMP production measured using a CAMYEL BRET biosensor, Net BRET (D2LR [3]; time 8.81667 mins): 0.2189 and 0.2083 and 0.199
- Inhibition of cAMP production measured using a CAMYEL BRET biosensor, Net BRET (D2LR [3]; time 9.18333 mins): 0.2207 and 0.2105 and 0.1943
- Inhibition of cAMP production measured using a CAMYEL BRET biosensor, Net BRET (D2LR [3]; time 9.55 mins): 0.212 and 0.2054 and 0.2079
- Inhibition of cAMP production measured using a CAMYEL BRET biosensor, Net BRET (D2LR [3]; time 9.91667 mins): 0.2149 and 0.2049 and 0.2075
- Inhibition of cAMP production measured using a CAMYEL BRET biosensor, Net BRET (D2LR [3]; time 10.2833 mins): 0.2152 and 0.2111 and 0.2029
- Inhibition of cAMP production measured using a CAMYEL BRET biosensor, Net BRET (D2LR [3]; time 10.65 mins): 0.2279 and 0.2163 and 0.2038
- Inhibition of cAMP production measured using a CAMYEL BRET biosensor, Net BRET (D2LR [3]; time 11.0167 mins): 0.2157 and 0.2032 and 0.2052
- Inhibition of cAMP production measured using a CAMYEL BRET biosensor, Net BRET (D2LR [3]; time 11.3833 mins): 0.2205 and 0.2041 and 0.2034
- Inhibition of cAMP production measured using a CAMYEL BRET biosensor, Net BRET (D2LR [3]; time 11.75 mins): 0.2254 and 0.2085 and 0.1983
- Inhibition of cAMP production measured using a CAMYEL BRET biosensor, Net BRET (D2LR [3]; time 12.1167 mins): 0.2217 and 0.2066 and 0.2006
- Inhibition of cAMP production measured using a CAMYEL BRET biosensor, Net BRET (D2LR [3]; time 12.4833 mins): 0.2324 and 0.2048 and 0.2074
- Inhibition of cAMP production measured using a CAMYEL BRET biosensor, Net BRET (D2LR [3]; time 12.85 mins): 0.2281 and 0.2112 and 0.2008
- Inhibition of cAMP production measured using a CAMYEL BRET biosensor, Net BRET (D2LR [3]; time 13.2167 mins): 0.2271 and 0.2125 and 0.2083
- Inhibition of cAMP production measured using a CAMYEL BRET biosensor, Net BRET (D2LR [3]; time 13.5833 mins): 0.2211 and 0.208 and 0.2059
- Inhibition of cAMP production measured using a CAMYEL BRET biosensor, Net BRET (D2LR [3]; time 13.95 mins): 0.2209 and 0.2042 and 0.208
- Inhibition of cAMP production measured using a CAMYEL BRET biosensor, Net BRET (D2LR [3]; time 14.3167 mins): 0.2319
